The source of these data is patent US8563578B2, “Antitumor properties of NO modified protease inhibitors” (Onconox APS, priority 2008, dated 2013).

Data set [1] has as its system B16 cells. In words: Autophagy detection by acridin orange staining, B16. Type of data set: cell-based, mouse. The following applies: 18.8 μM, 24 h. As for the experimental part:
Vital dye acridin orange (AO) was used for detection of autophagy. The intensity of red fluorescence correlates with acidity and volume of present autophagic organelles (Kanzawa et al. 2004). Assay was performed as follows: the cells were cultured in 6-well plate (2×10^5/well) 24 h in the presence of the drug, detached with trypsin and stained with 1 μg/ml AO in RPMI without phenol red for 15 min at RT. After the end of incubation period cells were washed and resuspended in PBS. Green and red fluorescence emission was measured with a FACSCalibur and analyzed using CellQuest software.
(§1) FIG. 4. […] Results are calculated as indicated in materials and methods and presented as mean±SD from representative of three independent experiment (*p <0.05). […] After 24 h of cultivation without or with drugs, cells were stained with AO orange (B) or PI (C) and analyzed by flow cytometry. The data are presented as mean±SD from three independent experiments. *p<0.05, refers to untreated cultures. […] Cells were incubated with 18.8 μM of Sag or Saq-NO2 for 24 h. After that, the drugs were either removed or not from the cells and incubated for additional 24 h. Cell viability was determined by CV test after 24 and 48 h of incubation (right panels). The data are presented as mean±SD from three independent experiments. *p<0.05, refers to untreated cultures.

The subject of the next data set is B16 melanoma. In words: B16 melanoma growth in syngeneic C57BL/6 mice. Type of data set: in vivo, mouse. The following applies: 10 mg/kg i.p.; for animals that developed tumors at autopsy: day 30 post tumor challenge. How it is done: In order to induce primary tumor 2×10^5 B16 melanoma cells were injected subcutaneously (s.c) in the dorsal right lumbosacral region of syngeneic C57BL/6 mice. Tumor growth was observed daily, and the drug treatment started from day 10 after implantation. […] Mice were sacrificed on day 30, tumor growth was determined by three-dimensional measurements of individual tumors from each mouse. Tumor volume was calculated as: [0.52×a×b^2], where a is the longest and b is the shortest diameter as described previously (Maksimovic-Ivanic et al. 2008).
FIG. 7. […] Tumor volumes were determined 30 days after tumor implantation, as indicated in Materials and methods.

The next data set deals with Tumor cells. Nature of the data set: Viability recovery after drug withdrawal (CV test). Type of data set: cell-based. The note with it: 18.8 μM for 24 h, drug removed, additional 24 h. As for the experimental part: Reduction of 3-4,5-dimethylthiazol-2-yl)-2,5-diphenyltetrazolium bromide (MTT) to formazan depends on mitochondrial activity of cultured cells, absorption of crystal violet dye correlates with the number of adherent, live cells, while the release of cytosolic lactate dehydrogenase (LDH) indicates the disruption of membrane integrity caracteristic for necrotic cells. The cells were seeded in flat-bottom 96-well plates in a final volume of 200 μl of culture medium containing different agents, and the assays were performed after 24 h incubation exactly as previously described (Mijatovic et al. 2004, Decker et al., 1998). Mitohondrial-dependent production of formazan and intensity of absorbed crystal violet by adherent cells were assessed by an automated microplate reader at 570 nm, while the pyruvate-mediated conversion of 2,4-dinitrophenylhydrazine into visible hydrazone precipitate in LDH assay was measured at 492 nm. The % of cytotoxicity as indicated by LDH release was calculated as: (E−C)/(T−C)×100, where E is the experimental absorbance of cell cultures, C is the control absorbance of cell-free culture medium, and T is the absorbance corresponding to the maximal (100%) LDH release of Triton-lysed cells.
FIG. 4. […] Results are calculated as indicated in materials and methods and presented as mean±SD from representative of three independent experiment (*p <0.05). […]

Data set [2] relates to B16 cells. Nature of the data set: Cell cycle / apoptosis by propidium iodide flow cytometry, B16. Type of data set: cell-based, mouse. The note with it: 18.8 μM, 24 h. As for the experimental part:
Apoptotic cell death was assessed by flow cytometry analysis of DNA fragmentation in cells stained with DNA-binding dye propidium iodide (PI). Following a 24 h incubation in 6-well plate, cells (2×10^5/well) were detached with trypsin, washed and fixed in 70% ethanol at 4° C. for 30 min. After washing in PBS, cells were resuspended in PBS containing 1 mg/ml RNase and propidium iodide (40 μg/ml) and kept at 37° C. in the dark for 30 min. Red fluorescence was analyzed with FACSCalibur flow cytometer (BD, Heidelberg, Germany) and distribution of cells among cell cycle phases was determined with Cell Quest Pro software (BD). Hypodiploid cells in sub-G0/G1 compartment were considered apoptotic.
as §1
For orientation: A flow cytometer gives signals particle by particle.

The subject of data set [3] is B16 cells. In words: Melanin determination, B16. Type of data set: cell-based, mouse. The following applies: 18.8 μM, 24 h. How it is done:
Tyrosinase activity was determined by measuring the rate of oxidation of L-DOPA^34. Briefly, sub-confluent cultures in 6-well plate were lysed in 100 μl phosphate buffer pH 6.8-1% Triton X-100 and than centrifuged at 10000 rpm for 5 min. 40 μl of each extract was mixed with 100 μl of L-DOPA substrate solution (2 mg/ml). Enzymatic reaction was carried out at 37° C. and the absorbance at 570 nm was read every 10 min for at least 1 h. The final activity was corrected by the total amount of protein estimated by Bradford assay. For melanin determination cells were incubated in 6 well plate for 24 h, trypsinized, counted and than lysed in 100 μl of 1M NaOH. 400 μl of distilled water was added and samples were incubated at 60° C. for 1 h. Thereafter, absorbance of dissolved dye was measured at 492 nm.
FIG. 5. […] Cell morphology was assessed by light microscopy (A). Markers of cell differentiation of C6 and B16 cells, galactocerebroside, GFAP and MBP were determined by cELISA and melanin and tyrosinase activity were determined as described in material and methods (B). Cyclin D3 and p53 expression were evaluated by cELISA (C, upper panels), immunocytochemistry (C, middle panel) and Western blot (C, lower panel). The results were presented as mean±SD from three independent experiments. *p<0.05, refers to untreated cultures.

Where [4] appears, read: 15 consecutive days from day 10.

As for `CC(C)(C)NC(=O)[C@@H]1C[C@@H]2CCCC[C@@H]2CN1C[C@@H](O)[C@H](Cc1ccccc1)NC(=O)[C@H](CC(N)=O)NC(=O)c1ccc2ccccc2n1` [Saq, Saquinavir, reference compound], the “amount of acidic vesicles in the cytoplasm (autophagy)” value with B16 cells [1] is given as “absence of autophagia”. Further, in the data set with B16 melanoma (15 consecutive days), the “animals without tumors with strong inflammation of peritoneum” value came to 4 animals and the “loss of body weight from initial body weight” value turned out to be 10%. Also, the tumor volume result with B16 melanoma (15 consecutive days from day 10, day 30) is given as “significantly reduced volume”. Moreover, the “animals that developed tumors at autopsy” value in the data set on B16 melanoma (setting [4]) is recorded as 3/9. For the same molecule, the “recovery of viability after drug withdrawal” value in the data set with Tumor cells is reported as “mainly restored the viability”. In addition, the cell cycle distribution entry with B16 cells [2] is listed as “did not show considerably different distribution from control”. For the same molecule, the melanin content result with B16 cells [3] was “increased”.
In the case of `CC(C)(C)NC(=O)[C@@H]1C[C@@H]2CCCC[C@@H]2CN1C[C@@H](O[N+](=O)[O-])[C@H](Cc1ccccc1)NC(=O)[C@H](CC(N)=O)NC(=O)c1ccc2ccccc2n1` [Saq-NO2, nitric ester of Saquinavir], the “amount of acidic vesicles in the cytoplasm (autophagy)” value in the data set on B16 cells [1] is given as “absence of autophagia”. Also, in the data set with B16 melanoma (15 consecutive days), the “raise of body weight, of initial body weight” value is 13% and the “visible signs of toxicity” value is listed as “no any visible signs of toxicity”. In the data set on B16 melanoma (setting [4]), the “animals that developed tumors at autopsy” value is “one”. The “recovery of viability after drug withdrawal” value in the data set with Tumor cells is “very mild recovering”. Moreover, in the data set with B16 cells [2], the apoptosis entry is reported as “statistically significant apoptosis” and the cell cycle distribution result was “accumulation of cells in G2/M phase”. In addition, the melanin content entry in the data set with B16 cells [3] was “unchanged”.
